Data from ChEMBL document CHEMBL5528007, “Synthetic GPR40/FFAR1 agonists: An exhaustive survey on the most recent chemical classes and their structure-activity relationships” (Eur J Med Chem, 2024).
pEC50: −log10 of the molar value. Blank lines part the entries; values can stand above or below the compound they belong to.

Legend:
[1] = target: T1, Free fatty acid receptor 1 (Homo sapiens, UniProt O14842); experiment: Agonist activity at human recombinant FFA1 stably expressed in CHO cells assessed as increase in calcium flux by Fluo4-AM dye based FLIPR assay; type: functional, cell-based
T1 sequence (O14842 whole entry): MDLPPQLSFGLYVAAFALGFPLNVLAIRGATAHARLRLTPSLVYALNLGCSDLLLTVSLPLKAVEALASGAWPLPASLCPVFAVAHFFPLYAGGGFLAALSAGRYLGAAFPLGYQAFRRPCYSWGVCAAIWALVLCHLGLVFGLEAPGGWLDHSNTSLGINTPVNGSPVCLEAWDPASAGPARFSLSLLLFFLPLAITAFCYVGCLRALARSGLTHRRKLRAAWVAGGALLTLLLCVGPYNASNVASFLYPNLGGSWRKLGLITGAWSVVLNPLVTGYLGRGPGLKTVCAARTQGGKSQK

[2] = target: T1, Free fatty acid receptor 1; experiment: Agonist activity at human recombinant GPR40 expressed in CHO cells by Fluo4-AM dye based intracellular calcium flux assay relative to control; type: functional, cell-based
[3] = target: T1, Free fatty acid receptor 1; experiment: Agonist activity at human FFA1 stably expressed in CHO cells at 300 nM by Fluo4-AM dye based intracellular calcium flux FLIPR assay relative to control; type: functional, cell-based
[4] = target: T1, Free fatty acid receptor 1; experiment: Agonist activity at human recombinant GPR40 stably expressed in HEK293 cells at 0.1 uM incubated for 24 hrs by FLIPR assay relative to control; type: functional, cell-based
[5] = target: T2, Peroxisome proliferator-activated receptor gamma (Homo sapiens) (UniProt P37231); experiment: Agonist activity at PPARgamma (unknown origin) assessed as fold increase in calcium by Fluo4-AM dye based intracellular calcium flux assay; type: cell-based; settings: filed as agonist
T2 sequence (whole entry): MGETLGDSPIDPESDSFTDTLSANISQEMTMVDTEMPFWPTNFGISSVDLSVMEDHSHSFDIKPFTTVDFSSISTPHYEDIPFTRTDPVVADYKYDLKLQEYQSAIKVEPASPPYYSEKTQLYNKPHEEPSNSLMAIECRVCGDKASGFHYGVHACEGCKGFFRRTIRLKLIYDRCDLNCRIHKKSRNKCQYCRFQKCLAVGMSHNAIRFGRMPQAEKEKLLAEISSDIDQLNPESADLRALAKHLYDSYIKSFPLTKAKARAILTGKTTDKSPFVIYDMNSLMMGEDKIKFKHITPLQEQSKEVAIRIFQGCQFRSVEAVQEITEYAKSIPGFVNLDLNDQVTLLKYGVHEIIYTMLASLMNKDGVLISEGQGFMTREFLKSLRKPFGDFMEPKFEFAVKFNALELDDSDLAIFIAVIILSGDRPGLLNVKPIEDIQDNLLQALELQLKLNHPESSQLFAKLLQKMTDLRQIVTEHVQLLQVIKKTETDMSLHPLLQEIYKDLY

GPR40-Galpha16 = GPR40-Galpha16 (Homo sapiens, UniProt O14842+P30679); experiment: Agonist activity at human GPR40/Galpha-16 expressed in HEK293 cells by Fluo4-AM dye based intracellular calcium flux assay
Chain of GPR40-Galpha16 (O14842 whole entry): as the sequence (O14842 whole entry) above
Chain of GPR40-Galpha16 (P30679 whole entry): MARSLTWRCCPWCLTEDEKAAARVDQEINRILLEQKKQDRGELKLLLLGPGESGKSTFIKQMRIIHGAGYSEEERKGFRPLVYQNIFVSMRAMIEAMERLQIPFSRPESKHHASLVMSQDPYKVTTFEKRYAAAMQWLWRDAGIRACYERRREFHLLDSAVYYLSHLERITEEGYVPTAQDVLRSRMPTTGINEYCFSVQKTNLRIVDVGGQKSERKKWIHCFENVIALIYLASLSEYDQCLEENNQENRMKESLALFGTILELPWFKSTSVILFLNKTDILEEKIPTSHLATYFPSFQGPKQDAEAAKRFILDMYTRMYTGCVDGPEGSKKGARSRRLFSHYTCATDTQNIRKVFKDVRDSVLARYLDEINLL

[6] = target: T1, Free fatty acid receptor 1; experiment: Agonist activity at human […] expressed in HEK293 cells incubated for 40 mins by Fluo4-AM dye based intracellular calcium flux assay; type: functional, cell-based
[7] = target: T1, Free fatty acid receptor 1; experiment: Agonist activity at human FFA1 expressed in CHO cells by Fluo4-AM dye based intracellular calcium flux assay; type: functional, cell-based
[8] = target: T1, Free fatty acid receptor 1; experiment: Agonist activity at human GPR40 stably expressed in CHO cells assessed as increase in intracellular calcium concentration by FLIPR assay; type: functional, cell-based
[9] = target: T1, Free fatty acid receptor 1; experiment: Agonist activity at human GPR40 expressed in HEK293 cells by Fluo4-AM dye based intracellular calcium flux assay; type: functional, cell-based

SMILES: O=C(O)C[C@@H](c1ccc(O[C@@H]2CCc3c2ccc(C(F)(F)F)c3CN2CCC(F)CC2)cc1)c1ccon1
- Activity ([2]; filed as agonist): 45.2%

SMILES: Cc1ccc(O[C@H]2CCOC2)cc1-c1cccc2c1CC[C@H]2Oc1ccc(OCC(=O)O)cc1
- Activity ([4]; filed as agonist): 51.7%

SMILES: Cc1ccc(O[C@H]2CCOC2)cc1-c1cc(COc2ccc(OCC(=O)O)cc2)cc2c1CCC2
- Activity ([4]; filed as agonist): 133%

SMILES: Cc1ccc(O[C@H]2CCOC2)cc1-c1cc(COc2ccc(OCC(=O)O)cc2)cc2c1OCC2
- Activity [4]: 1.8%

SMILES: O=C(O)C[C@@H](c1ccc(O[C@@H]2CCc3c2ccc(C(F)(F)F)c3CN2CCCCC2)cc1)c1ccon1
- Activity [2]: 16.5%

SMILES: Cc1cc(O[C@H]2CCOC2)cc(C)c1-c1cccc2c1CC[C@H]2Oc1ccc(OCC(=O)O)cc1
- Activity ([4]; filed as agonist): 47%

SMILES: O=C(O)C[C@@H](c1ccc(O[C@@H]2CCc3c2ccc(C(F)(F)F)c3CN2CCCCCC2)cc1)c1ccon1
- Activity ([2]; filed as agonist): 48.2%

SMILES: CC(C)(CCCCCCCCCCC(C)(C)CC(=O)O)CC(=O)O
- pEC50 [9]: 5.91

SMILES: CC1CCN(Cc2c(C(F)(F)F)ccc3c2CC[C@H]3Oc2ccc([C@H](CC(=O)O)c3ccon3)cc2)CC1
- Activity ([2]; filed as agonist): 55.1%

Second part, the compound after the results:

- pEC50 [1]: 5.86
SMILES: Cc1ccccc1-c1cccc(COc2ccc(OCC(=O)O)c(F)c2)c1

- Activity ([3]; filed as agonist): 50.4%
SMILES: O=C(O)CC1COc2cc(OCc3cccc(NC(=O)c4coc5ccccc45)c3)ccc21 (configuration not stated)

- Activity [3]: 23.5%
SMILES: O=C(O)CC1COc2cc(OCc3cccc(OCc4ccccc4)c3)ccc21 (configuration not stated)

- fold change (FC) [5]: 2
SMILES: COc1ccc2[nH]c(SCC(=O)Nc3ccc(OCC(=O)O)cc3)nc2c1

- pEC50 (GPR40-Galpha16): 7.32
SMILES: O=C(O)CCc1ccc(NCc2cccc(Oc3ccccc3)c2)cc1 [GW9508]

- pEC50 [6]: 4.00
SMILES: O=C(O)CCc1ccc(OCc2ccc3ccccc3n2)cc1

- Activity [3]: 23.7%
SMILES: Cc1ccc(S(=O)(=O)Nc2cccc(COc3ccc4c(c3)OCC4CC(=O)O)c2)cc1 (configuration not stated)

- pEC50 [7]: 7.37
SMILES: [2H]C([2H])(Cc1ccc(OCc2cccc(-c3c(C)cccc3C)c2)cc1)C(=O)O

- pEC50 [7]: 7.14
SMILES: [2H]C([2H])(Cc1ccc(OCc2cccc(-c3c(C)cc(OCCCS(C)(=O)=O)cc3C)c2)cc1)C(=O)O

- pEC50 [8]: 4.88
SMILES: Cc1cccc(C(=O)Nc2ccc(CC(=O)O)cc2)c1

- pEC50 [7]: 7.72
SMILES: [2H]C([2H])(Cc1ccc(OCc2cccc(-c3ccccc3C)c2)cc1)C(=O)O

- Activity ([3]; filed as agonist): 52.7%
SMILES: O=C(O)CC1COc2cc(OCc3cccc(O/C=C/Oc4ccccc4)c3)ccc21 (configuration not stated)

- fold change (FC) [5]: 2
SMILES: O=C(O)COc1ccc(NC(=O)CSc2nc3ccccc3[nH]2)cc1
